Measured values published in article PMC4207771, “Identification and Characterization of Novel Renal Sensory Receptors” (PLoS ONE, 2014).
Read-outs that look alike come from different tables or passages of the source.

Experiments:
Olfr545 = assay: dual-luciferase (cAMP/CREB reporter) ligand screen, Olfr545 in HEK293T cells; format: cell-based, mouse; parameters: key to Olfr545 response in dual-luciferase assay: ‘+’ or ‘–‘ in each column indicates if the olfactory receptor responded or had no effect to that specific chemical; -: ‘+’ or ‘–‘ in each column indicates if the olfactory receptor responded or had no effect to that specific chemical
Olfr691 = biological target: T1, Olfr691 (Mus musculus, UniProt Q8VGW5); assay: dual-luciferase (cAMP/CREB reporter) ligand screen, Olfr691 in HEK293T cells; format: cell-based; conditions: for Relative response (% of 4-pentenoate response) at 500 µM: HEK-293T, 4 h, 0.5 mM ligand, normalized to the response of Olfr691 to the strongest ligand
T1 construct: Lucy (N); expressed in transfected cells; host or cells: HEK293T, co-transfected with RTP1S
T1 sequence (Q8VGW5 1-322): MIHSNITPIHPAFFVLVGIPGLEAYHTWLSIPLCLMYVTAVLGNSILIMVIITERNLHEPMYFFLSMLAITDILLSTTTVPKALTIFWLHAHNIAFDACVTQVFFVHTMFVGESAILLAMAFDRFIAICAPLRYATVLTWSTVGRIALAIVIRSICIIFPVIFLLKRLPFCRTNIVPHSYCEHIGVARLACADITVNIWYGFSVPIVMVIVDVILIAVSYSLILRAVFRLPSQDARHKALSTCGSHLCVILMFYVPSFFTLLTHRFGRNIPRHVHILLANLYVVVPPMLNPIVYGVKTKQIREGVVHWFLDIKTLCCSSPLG

Olfr99 = assay: dual-luciferase (cAMP/CREB reporter) ligand screen, Olfr99 in HEK293T cells; format: cell-based, mouse; parameters: key: ‘+’ or ‘–‘ in each column indicates if the olfactory receptor responded or had no effect to that specific chemical; -: ‘+’ or ‘–‘ in each column indicates if the olfactory receptor responded or had no effect to that specific chemical
Olfr693 = assay: dual-luciferase (cAMP/CREB reporter) ligand screen, Olfr693 in HEK293T cells; format: cell-based, mouse; parameters: key: ‘+’ or ‘–‘ in each column indicates if the olfactory receptor responded or had no effect to that specific chemical; -: ‘+’ or ‘–‘ in each column indicates if the olfactory receptor responded or had no effect to that specific chemical
Olfr31 = biological target: T2, Olfr31 (Mus musculus, UniProt Q3KPA7); assay: dual-luciferase (cAMP/CREB reporter) ligand screen, Olfr31 in HEK293T cells; format: cell-based
T2 construct: expressed in transfected cells; host or cells: HEK293T, co-transfected with RTP1S
T2 sequence (Q3KPA7 1-317): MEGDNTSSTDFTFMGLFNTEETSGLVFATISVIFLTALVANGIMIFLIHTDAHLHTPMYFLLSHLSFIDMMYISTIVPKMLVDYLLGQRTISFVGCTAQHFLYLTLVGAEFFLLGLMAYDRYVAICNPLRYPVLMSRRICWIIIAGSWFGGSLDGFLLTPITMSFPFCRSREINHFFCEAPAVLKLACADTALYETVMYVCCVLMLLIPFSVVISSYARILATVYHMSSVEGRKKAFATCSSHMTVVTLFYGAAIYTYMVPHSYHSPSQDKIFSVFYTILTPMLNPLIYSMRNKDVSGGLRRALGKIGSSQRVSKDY

[1] = chemicals tested individually, screened at 500uM (* also at 100uM)

Olfr691 response in dual-luciferase assay (Olfr691; [1]) | Olfr31 response in dual-luciferase assay (Olfr31; [1]) | Relative response (% of 4-pentenoate response) at 500 µM (Olfr691) | EC50 (Olfr691; Olfr691 co-expressed with RTP1S in HEK293T cells, 10 µM to 7.5 mM) | Molecule | Olfr545 response in dual-luciferase assay (Olfr545; [1]) | Olfr99 response in dual-luciferase assay (Olfr99; [1]) | Olfr693 response in dual-luciferase assay (Olfr693; [1]) | Olfr545 response in dual-luciferase assay (Olfr545) | Olfr691 response in dual-luciferase assay (Olfr691) | Olfr99 response in dual-luciferase assay (Olfr99) | Olfr693 response in dual-luciferase assay (Olfr693) | Olfr31 response in dual-luciferase assay (Olfr31) | Olfr691 response (in words) (Olfr691)
- | - |  |  | C=C(C)C1CC=C(C)C(=O)C1 (stereo not shown) [Carvone] | - | - | - |  |  |  |  |  | 
- | - |  |  | Cc1cncc(C)n1 [2,6-Dimethylpyrazine] | - | - | - |  |  |  |  |  | 
- | - |  |  | CC(O)C(=O)O (stereo not shown) [lactic acid] | - | - | - |  |  |  |  |  | 
- | - |  |  | O=C(O)C(=O)O [Oxalate] | - | - | - |  |  |  |  |  | 
+ | - | 76 ± 3.6% |  | CCCCC(CC)C(=O)O (stereo not shown) [2-ethylhexanoate] | - | - | - |  |  |  |  |  | 
- | - |  |  | CCCCCCCCO [1-octanol] | - | - | - |  |  |  |  |  | 
- | - |  |  | CC(C)(O)CCCC1=CCC(C=O)CC1 (stereo not shown) [Lyral] | - | - | - |  |  |  |  |  | 
+ | - | 97 ± 10.8% | 1130 µM | CC(C)C(=O)O [isobutyrate] | - | - | - |  |  |  |  |  | 
- | - |  |  | CC(C)=CCC/C(C)=C/CO [Geraniol] | - | - | - |  |  |  |  |  | 
- | - |  |  | O=C(O)CC(O)(CC(=O)O)C(=O)O [citric acid] | - | - | - |  |  |  |  |  | 
- | - |  |  | COc1cccc(OC)c1 [1,3-Dimethoxybenzene] | - | - | - |  |  |  |  |  | 
+ | - | 37 ± 2.7% |  | CC(C)CCC(=O)O [isocaproate] | - | - | - |  |  |  |  |  | 
- | - |  |  | C=C(C)[C@@H]1CC[C@@H](C)C(=O)C1 [(+)Dihydrocarvone] | - | - | - |  |  |  |  |  | 
- | - |  |  | CCCCC/C=C/CO [trans-2-octen-1-ol] | - | - | - |  |  |  |  |  | 
- | - |  |  | CCCC1CCOC(C)S1 (stereo not shown) [2-Methyl-4-propyl-1,3-oxathiane] | - | - | - |  |  |  |  |  | 
- | - |  |  | O=C1CCC(=O)CC1 [1,4-cyclohexanedione] | - | - | - |  |  |  |  |  | 
- | - |  |  | CC(O)C(C)O (stereo not shown) [2,3-butanediol] | - | - | - |  |  |  |  |  | 

The remaining lines, values behind:

Molecule | Olfr691 response in dual-luciferase assay (Olfr691; [1]) | Olfr31 response in dual-luciferase assay (Olfr31; [1]) | Relative response (% of 4-pentenoate response) at 500 µM (Olfr691) | EC50 (Olfr691; Olfr691 co-expressed with RTP1S in HEK293T cells, 10 µM to 7.5 mM) | Olfr545 response in dual-luciferase assay (Olfr545; [1]) | Olfr99 response in dual-luciferase assay (Olfr99; [1]) | Olfr693 response in dual-luciferase assay (Olfr693; [1]) | Olfr545 response in dual-luciferase assay (Olfr545) | Olfr691 response in dual-luciferase assay (Olfr691) | Olfr99 response in dual-luciferase assay (Olfr99) | Olfr693 response in dual-luciferase assay (Olfr693) | Olfr31 response in dual-luciferase assay (Olfr31) | Olfr691 response (in words) (Olfr691)
CCCCCCC(=O)O [heptanoate] | + | - | 41 ± 2.1% |  | - | - | - |  |  |  |  |  | 
O=C1CCCCCCCCCCCCCCO1 [omega-pentadecalactone] | - | - |  |  | - | - | - |  |  |  |  |  | 
O=C1CCCCC1 [cyclohexanone] | - | - |  |  | - | - | - |  |  |  |  |  | 
CC(C)CCO [3-methyl-1-butanol] | - | - |  |  | - | - | - |  |  |  |  |  | 
CC(C)C(=O)OCCc1ccccc1 [phenyl ethyl isobutyrate] | - | - |  |  | - | - | - |  |  |  |  |  | 
O=C(O)CCC(=O)O [Succinate] | - | - |  |  | - | - | - |  |  |  |  |  | 
[Na+].[Na+].[S-2] [Sodium Sulfide] |  |  |  |  |  |  |  | - | - | - | - | - | 
Cc1ccco1 [2-methylfuran] | - | - |  |  | - | - | - |  |  |  |  |  | 
C=C[C@H](O)CCCCC [(R)-1-Octen-3-ol] | - | - |  |  | - | - | - |  |  |  |  |  | 
O=C1CCCCCCCCCCCCCCCO1 [16-hexadecanolide] | - | - |  |  | - | - | - |  |  |  |  |  | 
CCCCCCCC(=O)O [octanoic acid] | + | - | 20 ± 0.9% |  | - | - | - |  |  |  |  |  | responds
Myrtenal | - | - |  |  | - | - | - |  |  |  |  |  | 
O=CO [formate] |  |  |  |  |  |  |  |  |  |  |  |  | not including
C[C@]12CC[C@@H]3c4ccc(O)cc4CC[C@H]3[C@@H]1CC[C@@H]2O [estradiol, reference compound] | - |  |  |  | - | - | - |  |  |  |  |  | 
CC(C)CC(=O)O [isovaleric acid] |  |  |  |  | - | - | - |  |  |  |  |  | 
